The values that follow come from US20200031866A1, “PEPTIDE INHIBITORS OF SODIUM CHANNELS” (SPYRYX BIOSCIENCES, INC., priority 2016, published 2020).

Square brackets hold non-standard residues; d marks the D form. Peptide text beside a SMILES is read from it.

The subject of assay [1] is tracheal mucus velocity (TMV) in sheep. In words: CFTRinh-172-induced slowing of tracheal mucus velocity (TMV) in sheep. The format is in vivo. The settings on record: for average TMV response between 5-12h: mean±se, 3 sheep/group, saline 50±0.5%. How it is done: All procedures used were approved by the Mount Sinai Medical Center Animal Research Committee. The sheep were conscious and intubated for these studies. All instrumentation was performed under local anesthesia. After topical anesthesia of the nasal passages with 2% lidocaine solution, the sheep were nasally intubated, with an endotracheal tube […] in diameter (Mallinckrodt Med Inc., St. Louis, Mo.) shortened by 6 cm. The cuff of the tube was placed just below the vocal cords (verified by fluoroscopy) to allow for maximal exposure of the tracheal surface area. The inspired air was warmed and humidified using a Bennett Humidifier (Puritan-Bennett, Lenexa, Kans.). To minimize possible impairment of TMV caused by the inflated cuff, the endotracheal tube cuff remained deflated throughout the study except for the period of drug delivery.
TMV was measured in vivo by a roentgenographic technique. Between 8 and 10 radiopaque Teflon/bismuth trioxide disks, 1-mm diameter, 0.8-mm thick and 1.5-2 mg in weight, were insufflated onto the trachea. A modified suction catheter connected to a source of continuous compressed air at a flow of 3-4 L/min was used to introduce the particles via the endotracheal tube. The catheter remained within the endotracheal tube only during particle delivery, so that no contact with the tracheal surface is made. The cephalad-axial velocities of the individual disks were recorded on videotape from a portable image intensifier unit. Individual disk velocities were calculated by measuring the distance traveled by each disk during a 1-min observation period. For each run, the mean value of all individual disk velocities was calculated. A collar containing radiopaque reference markers of known length was worn by the sheep, and used as a standard to correct for magnification effects inherent in the fluoroscopy unit.
Aerosols were generated using an Airlife medication nebulizer. To control aerosol delivery a dosimetry system activated by a piston respirator (Harvard Apparatus Respiratory Pump, Holliston, Mass.) was used. The nebulizer was connected to a T-piece with one end attached to the respiratory pump and the other to the animal's tracheal tube. Nebulized aerosols were delivered directly into the trachea only during inspiration at a frequency of 20 breaths/min and at a tidal volume of 500 mL.
Ten (10) mg of CFTRinh-172 was dissolved in 0.3 mL of DMSO. The solution was vortexed and then 2.7 mL of ethanol was added bringing the final nebulized solution of CFTRinh to 10 mg/3 mL. […]
After a 10 minute period on the humidifier, a baseline TMV was obtained Immediately following the baseline, the sheep were challenged with an aerosol of 10 mg of CFTRinh. TMV was measured hourly for 4h. […] TMV was then measured from 5-12h following treatment. […]

The target of another assay is T1, alpha-ENaC (Homo sapiens, UniProt P37088).
T1 construct: expressed in transfected cells; host or cells: HEK293T
T1 sequence (P37088 1-669): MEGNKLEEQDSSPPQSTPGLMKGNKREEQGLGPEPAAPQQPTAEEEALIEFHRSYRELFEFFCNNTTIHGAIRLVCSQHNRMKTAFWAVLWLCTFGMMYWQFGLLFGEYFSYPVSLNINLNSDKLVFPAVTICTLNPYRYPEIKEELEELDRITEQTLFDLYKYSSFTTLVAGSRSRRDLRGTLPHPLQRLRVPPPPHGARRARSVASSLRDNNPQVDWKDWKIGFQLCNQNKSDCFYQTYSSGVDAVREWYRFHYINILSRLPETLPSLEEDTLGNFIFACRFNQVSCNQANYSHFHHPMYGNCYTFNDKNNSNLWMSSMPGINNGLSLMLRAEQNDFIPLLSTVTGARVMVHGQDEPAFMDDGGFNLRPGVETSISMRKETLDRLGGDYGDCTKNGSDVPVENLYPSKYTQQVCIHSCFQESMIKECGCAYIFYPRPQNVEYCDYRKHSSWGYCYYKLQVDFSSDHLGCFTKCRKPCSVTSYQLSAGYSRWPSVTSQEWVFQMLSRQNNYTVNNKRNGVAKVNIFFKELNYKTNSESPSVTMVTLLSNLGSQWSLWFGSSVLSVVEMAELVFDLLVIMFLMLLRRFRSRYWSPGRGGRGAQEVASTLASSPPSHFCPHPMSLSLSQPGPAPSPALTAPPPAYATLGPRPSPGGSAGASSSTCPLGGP
Description: Internalization of alpha-ENaC in HEK293T cells, GFP-tagged alpha-ENaC co-expressed only with gamma ENaC and no beta-ENaC. It counts as cell-based. The note with it: FIG. 6. How it is done: […] Am J Physiol Lung Cell Mol Physiol. 2013 December; 305(12):L990-L1001. doi: 10.1152/ajplung.00103.2013. Epub 2013 October; Garland et al. Proc Natl Acad Sci USA. 2013 Oct. 1; 110(40):15973-8. doi: 10.1073/pnas.1311999110. Epub 2013 Sep. 16.; Tan et al. J Physiol. 2014 Dec. 1; 592(Pt 23):5251-68). Twenty-four hours later, peptide or vehicle control were added at t=0 and fluorescence was read using a Tecan M1000 plate reader 3 h later. Fluorescence was read at 488 nm (excitation)/510 nm (emission).

With `CC[C@H](C)[C@H](NC(=O)[C@@H]1CCCN1C(=O)[C@H](CC(C)C)NC(=O)[C@@H](C)NC(=O)[C@@H](C)N)C(=O)N1CCC[C@H]1C(=O)N[C@@H](CC(C)C)C(=O)N[C@@H](CC(=O)O)C(=O)N[C@@H](CCC(N)=O)C(=O)N[C@H](C(=O)N[C@H](C)C(=O)N[C@H](C)C(N)=O)[C@@H](C)O` [SEQ ID NO:128, aaLPIPLDQTaa] (H-[dA][dA]LPIPLDQT[dA][dA]-NH2), the “average TMV response between 5-12h” value in assay [1] (1 mg/kg nebulized 4 h after 10 mg CFTRinh) is 73.7±0.7%; in assay [1] (2 mg/kg nebulized 4 h after 10 mg CFTRinh), 88.4±0.6%; in assay [1] (4 mg/kg nebulized 4 h after 10 mg CFTRinh), 103.0±0.6%. Also, the “reversal of CFTRinh-induced slowing of TMV” value in assay [1] (reversal dose dependent, FIGS. 8A-8C) is listed as “can reverse CFTRinh-induced slowing of TMV”. Besides, the “effect on alpha-ENaC” value at alpha-ENaC was “no effect”.
